Data published in ChEMBL document CHEMBL4373740, “Synthesis and biological evaluation of new MET inhibitors with 1,6-naphthyridinone scaffold” (Eur J Med Chem, 2020).
pIC50: −log10 of the molar value.

Assays:
[1] = biological target: Hepatocyte growth factor receptor (Homo sapiens, UniProt P08581); test: Inhibition of purified recombinant MET kinase domain (unknown origin) using biotin as substrate preincubated for 5 mins followed by substrate addition and measured after 30 to 60 mins in presence of ATP by HTRF assay
[2] = biological target: Vascular endothelial growth factor receptor 2 (Homo sapiens, UniProt P35968); test: Inhibition of purified recombinant VEGFR2 kinase domain (unknown origin) using biotin as substrate preincubated for 5 mins followed by substrate addition and measured after 30 to 60 mins in presence of ATP by HTRF assay
Sequence of Vascular endothelial growth factor receptor 2 (P35968 whole entry, the tested form may be a part): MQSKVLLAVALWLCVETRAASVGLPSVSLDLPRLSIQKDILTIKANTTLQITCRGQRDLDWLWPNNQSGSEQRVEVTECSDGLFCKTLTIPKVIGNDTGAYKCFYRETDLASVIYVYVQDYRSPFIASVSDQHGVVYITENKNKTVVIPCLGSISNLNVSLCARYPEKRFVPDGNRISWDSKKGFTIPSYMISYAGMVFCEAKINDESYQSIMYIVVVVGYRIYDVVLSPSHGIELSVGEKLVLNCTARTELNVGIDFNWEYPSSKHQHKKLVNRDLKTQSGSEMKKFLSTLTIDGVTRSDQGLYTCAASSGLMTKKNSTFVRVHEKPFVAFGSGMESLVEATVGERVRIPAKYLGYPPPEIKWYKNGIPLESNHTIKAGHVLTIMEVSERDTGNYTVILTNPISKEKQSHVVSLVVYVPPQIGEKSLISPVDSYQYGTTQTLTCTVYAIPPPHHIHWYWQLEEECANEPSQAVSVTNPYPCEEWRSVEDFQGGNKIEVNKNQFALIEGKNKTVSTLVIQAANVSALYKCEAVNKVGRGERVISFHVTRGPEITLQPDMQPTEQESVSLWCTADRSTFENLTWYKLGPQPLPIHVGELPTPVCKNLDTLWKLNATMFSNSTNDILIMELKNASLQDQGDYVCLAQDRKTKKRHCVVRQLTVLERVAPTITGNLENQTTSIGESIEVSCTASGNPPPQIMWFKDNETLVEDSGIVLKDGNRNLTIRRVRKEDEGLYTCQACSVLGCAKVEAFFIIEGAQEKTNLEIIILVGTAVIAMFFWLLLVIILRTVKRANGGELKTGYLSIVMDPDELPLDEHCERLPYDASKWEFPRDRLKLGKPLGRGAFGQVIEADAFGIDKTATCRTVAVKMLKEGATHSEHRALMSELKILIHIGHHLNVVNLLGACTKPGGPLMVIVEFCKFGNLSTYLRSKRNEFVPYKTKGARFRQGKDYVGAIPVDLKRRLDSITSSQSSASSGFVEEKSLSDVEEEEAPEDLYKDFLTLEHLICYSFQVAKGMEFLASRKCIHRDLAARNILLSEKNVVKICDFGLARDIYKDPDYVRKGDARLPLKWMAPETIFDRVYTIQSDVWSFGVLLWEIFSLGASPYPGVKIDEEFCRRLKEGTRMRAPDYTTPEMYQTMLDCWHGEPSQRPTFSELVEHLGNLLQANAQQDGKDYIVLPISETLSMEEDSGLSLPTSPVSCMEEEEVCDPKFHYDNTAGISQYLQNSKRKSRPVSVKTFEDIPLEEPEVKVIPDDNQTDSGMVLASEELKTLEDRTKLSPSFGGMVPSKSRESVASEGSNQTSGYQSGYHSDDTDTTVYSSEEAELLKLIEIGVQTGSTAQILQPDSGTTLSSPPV

[3] = biological target: Tyrosine-protein kinase receptor TYRO3 (Homo sapiens, UniProt Q06418); test: (§1) Inhibition of recombinant human GST-tagged RSE catalytic domain (451 to 890 residues) expressed in baculovirus expression system using biotin as substrate preincubated for 5 mins followed by substrate addition and measured after 30 to 60 mins in presence of ATP by HTRF assay
[4] = Half life in Sprague-Dawley rat at 5.0 mg/kg, ig measured for 15 min to 72 hrs by LC-MS/MS analysis; format: ADME, organism-based; conditions: in vivo, po
[5] = Cmax in Sprague-Dawley rat at 5.0 mg/kg, ig measured for 15 min to 72 hrs by LC-MS/MS analysis; format: ADME, organism-based; design: dose 5 mg/kg, route intragastric; conditions: in vivo, po
[6] = Volume of distribution in Sprague-Dawley rat at 1.0 mg/kg, iv measured for 5 min to 72 hrs by LC-MS/MS analysis; format: ADME, organism-based; conditions: in vivo
[7] = Clearance in Sprague-Dawley rat at 1.0 mg/kg, iv measured for 5 min to 72 hrs by LC-MS/MS analysis; format: ADME, organism-based; conditions: in vivo
[8] = Mean residence time in Sprague-Dawley rat at 1.0 mg/kg, iv measured for 5 min to 72 hrs by LC-MS/MS analysis; format: ADME, organism-based; conditions: in vivo
[9] = Oral bioavailability in Sprague-Dawley rat at 5.0 mg/kg, ig measured for 15 min to 72 hrs by LC-MS/MS analysis; format: ADME, organism-based; conditions: in vivo
[10] = biological target: High affinity nerve growth factor receptor (Homo sapiens, UniProt P04629); test: as §1, with “His-tagged TRKA” for “GST-tagged RSE”, “(441” for “(451”, “796” for “890”, “system at 1 uM” for “system”, “assay relative to control” for “assay”
[11] = biological target: Tyrosine-protein kinase BTK (Homo sapiens) (UniProt Q06187); test: Inhibition of recombinant full length human His-tagged BTK expressed in baculovirus expression system at 1 uM using biotin as substrate preincubated for 5 mins followed by substrate addition and measured after 30 to 60 mins in presence of ATP by HTRF assay relative to control
Sequence of Tyrosine-protein kinase BTK (Homo sapiens) (Q06187 whole entry): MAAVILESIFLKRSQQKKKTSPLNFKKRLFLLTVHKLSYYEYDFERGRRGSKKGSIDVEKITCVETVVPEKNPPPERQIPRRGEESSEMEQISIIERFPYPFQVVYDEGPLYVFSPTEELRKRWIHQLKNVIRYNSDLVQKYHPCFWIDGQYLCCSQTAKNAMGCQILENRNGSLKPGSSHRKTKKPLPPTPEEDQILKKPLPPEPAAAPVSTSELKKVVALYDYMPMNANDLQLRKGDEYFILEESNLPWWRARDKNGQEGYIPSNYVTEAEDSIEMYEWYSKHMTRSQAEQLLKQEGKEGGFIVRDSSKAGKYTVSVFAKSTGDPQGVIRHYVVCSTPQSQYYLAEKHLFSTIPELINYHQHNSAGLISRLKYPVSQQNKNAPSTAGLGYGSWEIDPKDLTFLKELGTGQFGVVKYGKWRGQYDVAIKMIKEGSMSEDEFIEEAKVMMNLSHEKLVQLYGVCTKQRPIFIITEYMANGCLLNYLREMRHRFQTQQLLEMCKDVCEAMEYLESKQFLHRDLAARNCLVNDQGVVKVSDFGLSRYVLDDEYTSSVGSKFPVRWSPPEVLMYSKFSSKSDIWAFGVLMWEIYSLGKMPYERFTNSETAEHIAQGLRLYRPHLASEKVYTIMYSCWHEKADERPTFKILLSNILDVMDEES

[12] = biological target: Cyclin-dependent kinase 5/CDK5 activator 1 (Homo sapiens) (UniProt Q00535+Q15078); test: Inhibition of recombinant full length human GST/His-tagged CDK5/p25 expressed in baculovirus expression system at 1 uM using biotin as substrate preincubated for 5 mins followed by substrate addition and measured after 30 to 60 mins in presence of ATP by HTRF assay relative to control
[13] = biological target: Macrophage colony-stimulating factor 1 receptor (Homo sapiens) (UniProt P07333); test: Inhibition of recombinant full length human His-tagged CSF1R expressed in baculovirus expression system at 1 uM using biotin as substrate preincubated for 5 mins followed by substrate addition and measured after 30 to 60 mins in presence of ATP by HTRF assay relative to control
Sequence of Macrophage colony-stimulating factor 1 receptor (Homo sapiens) (P07333 whole entry, the tested form may be a part): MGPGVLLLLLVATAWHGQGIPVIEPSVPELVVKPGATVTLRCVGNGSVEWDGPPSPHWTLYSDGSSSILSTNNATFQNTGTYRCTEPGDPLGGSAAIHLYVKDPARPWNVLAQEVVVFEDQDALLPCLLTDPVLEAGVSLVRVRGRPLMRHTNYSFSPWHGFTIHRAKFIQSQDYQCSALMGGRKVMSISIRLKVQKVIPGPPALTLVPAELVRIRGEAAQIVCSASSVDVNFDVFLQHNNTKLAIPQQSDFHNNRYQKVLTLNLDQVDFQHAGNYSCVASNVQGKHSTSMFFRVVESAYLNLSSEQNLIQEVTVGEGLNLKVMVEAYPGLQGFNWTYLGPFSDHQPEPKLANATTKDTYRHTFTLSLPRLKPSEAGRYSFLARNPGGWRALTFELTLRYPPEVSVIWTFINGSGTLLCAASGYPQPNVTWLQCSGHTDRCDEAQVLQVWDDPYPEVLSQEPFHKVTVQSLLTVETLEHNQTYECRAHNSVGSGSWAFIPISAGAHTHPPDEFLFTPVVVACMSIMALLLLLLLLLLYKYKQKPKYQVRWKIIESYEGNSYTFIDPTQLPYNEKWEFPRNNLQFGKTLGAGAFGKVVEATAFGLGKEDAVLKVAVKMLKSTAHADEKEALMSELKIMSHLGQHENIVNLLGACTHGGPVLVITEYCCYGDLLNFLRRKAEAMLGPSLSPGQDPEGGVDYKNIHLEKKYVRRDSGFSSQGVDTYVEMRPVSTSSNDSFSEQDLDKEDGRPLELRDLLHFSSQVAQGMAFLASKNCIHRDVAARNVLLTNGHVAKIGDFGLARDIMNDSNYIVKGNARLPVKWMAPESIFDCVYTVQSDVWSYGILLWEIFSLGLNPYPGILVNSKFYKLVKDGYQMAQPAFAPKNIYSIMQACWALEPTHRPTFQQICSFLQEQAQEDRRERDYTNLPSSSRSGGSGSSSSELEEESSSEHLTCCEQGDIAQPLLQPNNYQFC

[14] = biological target: Fibroblast growth factor receptor 1 (Homo sapiens) (UniProt P11362); test: (§2) Inhibition of recombinant human N-terminal His-tagged FGFR1 catalytic domain (399 to 822 residues) expressed in baculovirus infected Sf21 insect cells at 1 uM using biotin as substrate preincubated for 5 mins followed by substrate addition and measured after 30 to 60 mins in presence of ATP by HTRF assay relative to control
[15] = biological target: Glycogen synthase kinase-3 beta (Homo sapiens) (UniProt P49841); test: Inhibition of GSK3beta (unknown origin) at 1 uM using biotin as substrate preincubated for 5 mins followed by substrate addition and measured after 30 to 60 mins in presence of ATP by HTRF assay relative to control
Sequence of Glycogen synthase kinase-3 beta (Homo sapiens) (P49841 whole entry, looked up): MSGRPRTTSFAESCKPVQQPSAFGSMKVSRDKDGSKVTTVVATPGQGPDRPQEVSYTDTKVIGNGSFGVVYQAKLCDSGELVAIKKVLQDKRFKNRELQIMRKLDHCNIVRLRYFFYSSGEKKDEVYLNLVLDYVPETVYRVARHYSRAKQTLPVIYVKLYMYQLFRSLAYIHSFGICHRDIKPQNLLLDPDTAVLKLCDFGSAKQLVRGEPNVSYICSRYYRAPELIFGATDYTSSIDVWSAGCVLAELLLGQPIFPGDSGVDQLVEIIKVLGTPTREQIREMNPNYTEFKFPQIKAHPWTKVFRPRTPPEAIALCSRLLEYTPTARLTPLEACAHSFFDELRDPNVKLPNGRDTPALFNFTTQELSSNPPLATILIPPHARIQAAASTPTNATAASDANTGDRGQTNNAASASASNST

[16] = biological target: Tyrosine-protein kinase JAK1 (Homo sapiens) (UniProt P23458); test: Inhibition of recombinant full length human GST-tagged JAK1 expressed in baculovirus expression system at 1 uM using biotin as substrate preincubated for 5 mins followed by substrate addition and measured after 30 to 60 mins in presence of ATP by HTRF assay relative to control
[17] = biological target: Tyrosine-protein kinase JAK2 (Homo sapiens) (UniProt O60674); test: Inhibition of recombinant full length human GST-tagged JAK2 expressed in baculovirus expression system at 1 uM using biotin as substrate preincubated for 5 mins followed by substrate addition and measured after 30 to 60 mins in presence of ATP by HTRF assay relative to control
[18] = biological target: Tyrosine-protein kinase JAK3 (Homo sapiens) (UniProt P52333); test: Inhibition of recombinant full length human GST-tagged JAK3 expressed in baculovirus expression system at 1 uM using biotin as substrate preincubated for 5 mins followed by substrate addition and measured after 30 to 60 mins in presence of ATP by HTRF assay relative to control
[19] = biological target: Mast/stem cell growth factor receptor Kit (Homo sapiens) (UniProt P10721); test: as §2, with “GST-tagged c-Kit (544” for “His-tagged FGFR1 catalytic domain (399”, “end” for “822”
[20] = biological target: Mitogen-activated protein kinase 14 (Homo sapiens) (UniProt Q16539); test: Inhibition of recombinant full length human GST-tagged MAPK14 expressed in Escherichia coli at 1 uM using biotin as substrate preincubated for 5 mins followed by substrate addition and measured after 30 to 60 mins in presence of ATP by HTRF assay relative to control
Sequence of Mitogen-activated protein kinase 14 (Homo sapiens) (Q16539 whole entry): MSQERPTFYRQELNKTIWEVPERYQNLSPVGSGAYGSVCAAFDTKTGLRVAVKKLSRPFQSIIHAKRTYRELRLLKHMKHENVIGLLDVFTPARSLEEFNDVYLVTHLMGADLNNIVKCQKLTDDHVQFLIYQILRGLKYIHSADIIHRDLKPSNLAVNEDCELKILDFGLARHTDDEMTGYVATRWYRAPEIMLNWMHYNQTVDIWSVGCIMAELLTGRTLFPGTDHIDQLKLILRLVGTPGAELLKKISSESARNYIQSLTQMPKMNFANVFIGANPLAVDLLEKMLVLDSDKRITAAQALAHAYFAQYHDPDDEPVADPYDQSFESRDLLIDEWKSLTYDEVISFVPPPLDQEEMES

[21] = biological target: Serine/threonine-protein kinase pim-1 (Homo sapiens) (UniProt P11309); test: Inhibition of recombinant full length human His-tagged PIM1 expressed in baculovirus expression system at 1 uM using biotin as substrate preincubated for 5 mins followed by substrate addition and measured after 30 to 60 mins in presence of ATP by HTRF assay relative to control
Sequence of Serine/threonine-protein kinase pim-1 (Homo sapiens) (P11309 whole entry, looked up): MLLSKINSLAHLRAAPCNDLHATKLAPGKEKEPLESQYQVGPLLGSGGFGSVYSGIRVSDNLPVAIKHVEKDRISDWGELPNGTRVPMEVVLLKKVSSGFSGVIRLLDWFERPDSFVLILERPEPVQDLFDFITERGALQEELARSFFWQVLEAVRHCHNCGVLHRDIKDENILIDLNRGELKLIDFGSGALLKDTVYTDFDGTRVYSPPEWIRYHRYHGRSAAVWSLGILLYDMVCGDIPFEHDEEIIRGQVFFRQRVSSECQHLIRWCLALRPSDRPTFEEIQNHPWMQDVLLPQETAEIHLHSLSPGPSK

[22] = biological target: Serine/threonine-protein kinase PLK1 (Homo sapiens) (UniProt P53350); test: Inhibition of recombinant full length human His-tagged PLK1 expressed in baculovirus expression system at 1 uM using biotin as substrate preincubated for 5 mins followed by substrate addition and measured after 30 to 60 mins in presence of ATP by HTRF assay relative to control
[23] = biological target: cAMP-dependent protein kinase catalytic subunit alpha (Homo sapiens) (UniProt P17612); test: Inhibition of recombinant full length human His-tagged PRKACA expressed in Escherichia coli at 1 uM using biotin as substrate preincubated for 5 mins followed by substrate addition and measured after 30 to 60 mins in presence of ATP by HTRF assay relative to control
[24] = biological target: Proto-oncogene tyrosine-protein kinase Src (Homo sapiens) (UniProt P12931); test: Inhibition of recombinant full length human untagged SRC expressed in baculovirus expression system at 1 uM using biotin as substrate preincubated for 5 mins followed by substrate addition and measured after 30 to 60 mins in presence of ATP by HTRF assay relative to control
Sequence of Proto-oncogene tyrosine-protein kinase Src (Homo sapiens) (P12931 2-536 limits assumed): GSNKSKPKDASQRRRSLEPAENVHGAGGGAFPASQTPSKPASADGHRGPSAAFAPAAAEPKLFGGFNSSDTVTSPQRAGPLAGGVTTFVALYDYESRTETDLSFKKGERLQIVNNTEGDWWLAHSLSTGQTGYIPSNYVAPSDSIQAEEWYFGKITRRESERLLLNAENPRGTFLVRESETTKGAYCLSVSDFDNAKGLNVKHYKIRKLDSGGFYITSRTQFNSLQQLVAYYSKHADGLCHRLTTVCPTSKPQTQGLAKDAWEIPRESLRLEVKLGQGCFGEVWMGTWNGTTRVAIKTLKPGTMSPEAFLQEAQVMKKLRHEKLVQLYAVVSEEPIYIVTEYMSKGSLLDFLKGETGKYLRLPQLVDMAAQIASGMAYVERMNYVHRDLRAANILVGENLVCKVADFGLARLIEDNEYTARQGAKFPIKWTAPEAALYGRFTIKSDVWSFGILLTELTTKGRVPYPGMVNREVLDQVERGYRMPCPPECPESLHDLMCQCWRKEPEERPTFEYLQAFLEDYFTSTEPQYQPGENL

**Q.** With `Cn1cc(-c2ccc(F)cc2)c(=O)c2c(Nc3ccc(Oc4ccnc(NC(=O)C5CC5)c4)c(F)c3)nccc21` as the compound, how does the pIC50 [1] read?
**A.** The pIC50 was 8.15.

**Q.** What about the pIC50 [2] of the same compound?
**A.** Its pIC50 is 4.64.

**Q.** What about the pIC50 [3] of the same compound?
**A.** The pIC50 was 7.39.

**Q.** What about the half-life [4] of the same compound?
**A.** The half-life was 20.6 h.

**Q.** What about the Cmax [5] of the same compound?
**A.** Its Cmax is 7.8 µg/mL.

**Q.** And the Vd [6]?
**A.** The Vd was 0.4 L/kg.

**Q.** What about the clearance [7] of the same compound?
**A.** Its clearance is 0.01 L/h/kg.

**Q.** What about the MRT [8] of the same compound?
**A.** Its MRT is 10.8 h.

**Q.** And the bioavailability [9]?
**A.** The bioavailability was 58%.

**Q.** And the inhibition [10]?
**A.** Its inhibition is > 80%.

**Q.** What about the inhibition [11] of the same compound?
**A.** Its inhibition is < 50%.

**Q.** What about the inhibition [12] of the same compound?
**A.** The inhibition was < 50%.

**Q.** What about the inhibition [13] of the same compound?
**A.** Its inhibition is < 50%.

**Q.** And the inhibition [14]?
**A.** The inhibition was < 50%.

**Q.** What about the inhibition [15] of the same compound?
**A.** The inhibition was < 50%.

**Q.** And the inhibition [16]?
**A.** The inhibition was < 50%.

**Q.** And the inhibition [17]?
**A.** The inhibition was < 50%.

**Q.** What about the inhibition [18] of the same compound?
**A.** The inhibition was < 50%.

**Q.** And the inhibition [19]?
**A.** Its inhibition is < 50%.

**Q.** What about the inhibition [20] of the same compound?
**A.** Its inhibition is < 50%.

**Q.** And the inhibition [21]?
**A.** The inhibition was < 50%.

**Q.** What about the inhibition [22] of the same compound?
**A.** The inhibition was < 50%.

**Q.** What about the inhibition [23] of the same compound?
**A.** Its inhibition is < 50%.

**Q.** What about the inhibition [24] of the same compound?
**A.** Its inhibition is < 50%.
